Data taken from patent US9073942B2, “Antiviral compounds with a heterotricycle moiety” (Lupin Limited, priority 2012, dated 2015).

Key:
[1] = test system: bicistronic genotype 1b replicon in Huh 7.5 cells; test: HCV replicon assay, genotype 1b (Huh7.5 Con1/SG-Neo(I)hRluc2aUb cell line, Renilla luciferase readout); format: cell-based; conditions: Hepatitis C virus, Huh7.5, 72 h, read-out: Gt1b IC50
From the text: (§1) Anti-viral activity of the compounds of the invention was monitored using an HCV replicon assay. The Huh7.5 Con1/SG-Neo(I)hRluc2aUb cell line persistently expressing a bicistronic genotype 1b replicon in Huh 7.5 cells and the Huh7.5/J6/JFH1/EMCVIRES/hRlucNeo cell line expressing a bicistronic genotype 2a replicon in Huh 7.5 cells were obtained from Apath LLC. These cell lines were used to test inhibition of replicon levels by test compound using Renilla luciferase enzyme activity readout as a measure of viral replication efficiency.
(§2) Briefly, 7000-7500 cells were seeded in 96 well black clear bottom plates and allowed to adhere overnight. The next day each compound was added in triplicate to the cells at the desired concentration with a final DMSO concentration of 0.5%. Cells in media alone and cells incubated without drug with 0.5% DMSO served as controls. The plates were incubated for 72h at 37° C. prior to running the luciferase assay. Enzyme activity was measured using Renilla-Glo Luciferase Assay kit from Promega as per the manufacturer's instructions. The following equation was used to generate the percent inhibition value for each test concentration.
(§3) The IC50 value was determined using GraphPad Prism and the following equation: Y=Bottom+(Top−Bottom)(1+10^((Log IC50−X)*Hill slope))
(§4) IC50/values % inhibitions of compounds were determined 2-3 times in the replicon assays.

[2] = test system: bicistronic genotype 2a replicon in Huh 7.5 cells; test: HCV replicon assay, genotype 2a (Huh7.5/J6/JFH1/EMCVIRES/hRlucNeo cell line, Renilla luciferase readout); format: cell-based; conditions: Hepatitis C virus, Huh7.5, 72 h, read-out: Gt2a IC50
From the text: as §1, §2, §3, §4

Compound | IC50 [1] | IC50 [2]
COC(=O)N[C@H](C(=O)N1CCC[C@H]1c1ncc(-c2ccc3c(c2)OCc2cc(-c4cnc([C@@H]5CCCN5C(=O)[C@@H](NC(=O)OC)C(C)C)[nH]4)sc2-3)[nH]1)C(C)C [Compound 1, dimethyl((2S,2′S)-((2S,2′S)-2,2′-(5,5′-(4H-thieno[3,2-c]chromene-2,7-diyl)bis(1H-imidazole-5,2-diyl))bis(pyrrolidine-2,1-diyl))bis(3-methyl-1-oxobutane-2,1-diyl))dicarbamate] | 0.001 to 0.999 nM | 0.001 to 0.999 nM
COC(=O)N[C@H](C(=O)N1CCC[C@H]1c1ncc(-c2ccc3c(c2)OCCc2cc(-c4cnc([C@@H]5CCCN5C(=O)[C@@H](NC(=O)OC)C(C)C)[nH]4)sc2-3)[nH]1)C(C)C [Compound 2, dimethyl((2S,2′S)-((2S,2′S)-2,2′-(5,5′-(4,5-dihydrobenzo[b]thieno[2,3-d]oxepine-2,8-diyl)bis(1H-imidazole-5,2-diyl))bis(pyrrolidine-2,1-diyl))bis(3-methyl-1-oxobutane-2,1-diyl))dicarbamate] | 0.001 to 0.999 nM | 1 to 100 nM
COC(=O)N[C@H](C(=O)N1CCC[C@H]1c1nc(Cl)c(-c2ccc3c(c2)OCCc2cc(-c4[nH]c([C@@H]5CCCN5C(=O)[C@@H](NC(=O)OC)C(C)C)nc4Cl)sc2-3)[nH]1)C(C)C [Compound 3, dimethyl((2S,2′S)-((2S,2′S)-2,2′-(5,5′-(4,5-dihydrobenzo[b]thieno[2,3-d]oxepine-2,8-diyl)bis(4-chloro-1H-imidazole-5,2-diyl))bis(pyrrolidine-2,1-diyl))bis(3-methyl-1-oxobutane-2,1-diyl))dicarbamate] | 0.001 to 0.999 nM | 1 to 100 nM
COC(=O)N[C@H](C(=O)N1CCC[C@H]1c1ncc(-c2ccc3c(ccc4sc(-c5cnc([C@@H]6CCCN6C(=O)[C@@H](NC(=O)OC)C(C)C)[nH]5)nc43)c2)[nH]1)C(C)C [Compound 4, dimethyl((2S,2′S)-((2S,2′S)-2,2′-(5,5′-(naphtho[1,2-d]thiazole-2,7-diyl)bis(1H-imidazole-5,2-diyl))bis(pyrrolidine-2,1-diyl))bis(3-methyl-1-oxobutane-2,1-diyl))dicarbamate] | 0.001 to 0.999 nM | > 100 nM
COC(=O)N[C@H](C(=O)N1CCC[C@H]1c1ncc(-c2ccc3c(c2)CCc2cc(-c4cnc([C@@H]5CCCN5C(=O)[C@@H](NC(=O)OC)C(C)C)[nH]4)sc2-3)[nH]1)C(C)C [Compound 5, dimethyl((2S,2′S)-((2S,2′S)-2,2′-(5,5′-(4,5-dihydronaphtho[1,2-b]thiophene-2,7-diyl)bis(1H-imidazole-5,2-diyl))bis(pyrrolidine-2,1-diyl))bis(3-methyl-1-oxobutane-2,1-diyl))dicarbamate] | 0.001 to 0.999 nM | 0.001 to 0.999 nM
COC(=O)N[C@H](C(=O)N1CCC[C@H]1c1nc(Cl)c(-c2ccc3c(c2)CCc2c-3sc(-c3[nH]c([C@@H]4CCCN4C(=O)[C@@H](NC(=O)OC)C(C)C)nc3Cl)c2Cl)[nH]1)C(C)C [Compound 6, dimethyl((2S,2′S)-((2S,2′S)-2,2′-(5,5′-(3-chloro-4,5-dihydronaphtho[1,2-b]thiophene-2,7-diyl)bis(4-chloro-1H-imidazole-5,2-diyl))bis(pyrrolidine-2,1-diyl))bis(3-methyl-1-oxobutane-2,1-diyl))dicarbamate] | 0.001 to 0.999 nM | 0.001 to 0.999 nM
COC(=O)N[C@H](C(=O)N1CCC[C@H]1c1ncc(-c2ccc3c(ccc4cc(-c5cnc([C@@H]6CCCN6C(=O)[C@@H](NC(=O)OC)C(C)C)[nH]5)sc43)c2)[nH]1)C(C)C [Compound 7, dimethyl((2S,2′S)-((2S,2′S)-2,2′-(5,5′-(naphtho[1,2-b]thiophene-2,7-diyl)bis(1H-imidazole-5,2-diyl))bis(pyrrolidine-2,1-diyl))bis(3-methyl-1-oxobutane-2,1-diyl))dicarbamate] | 0.001 to 0.999 nM | 0.001 to 0.999 nM
COC(=O)N[C@H](C(=O)N1CCC[C@H]1c1ncc(-c2ccc3c(c2)CCCc2cc(-c4cnc([C@@H]5CCCN5C(=O)[C@@H](NC(=O)OC)C(C)C)[nH]4)sc2-3)[nH]1)C(C)C [Compound 8, dimethyl((2S,2′S)-((2S,2′S)-2,2′-(5,5′-(5,6-dihydro-4H-benzo[6,7]cyclohepta[1,2-b]thiophene-2,8-diyl)bis(1H-imidazole-5,2-diyl))bis(pyrrolidine-2,1-diyl))bis(3-methyl-1-oxobutane-2,1-diyl))dicarbamate] | 0.001 to 0.999 nM | 0.001 to 0.999 nM
COC(=O)N[C@H](C(=O)N1CCC[C@H]1c1nc(Cl)c(-c2ccc3c(c2)CCCc2cc(-c4[nH]c([C@@H]5CCCN5C(=O)[C@@H](NC(=O)OC)C(C)C)nc4Cl)sc2-3)[nH]1)C(C)C [Compound 9, dimethyl((2S,2′S)-((2S,2′S)-2,2′-(5,5′-(5,6-dihydro-4H-benzo[6,7]cyclohepta[1,2-b]thiophene-2,8-diyl)bis(4-chloro-1H-imidazole-5,2-diyl))bis(pyrrolidine-2,1-diyl))bis(3-methyl-1-oxobutane-2,1-diyl))dicarbamate] | 0.001 to 0.999 nM | 0.001 to 0.999 nM
COC(=O)N[C@H](C(=O)N1C(c2ncc(-c3ccc4c(ccc5cc(-c6cnc(C7[C@H]8CC[C@H](C8)N7C(=O)[C@@H](NC(=O)OC)C(C)C)[nH]6)sc54)c3)[nH]2)[C@H]2CC[C@@H]1C2)C(C)C (stereo partly drawn) [Compound 10, dimethyl((2S,2′S)-((1R,1′R,3S,3′S,4S,4′S)-3,3′-(5,5′-(naphtho[1,2-b]thiophene-2,7-diyl)bis(1H-imidazole-5,2-diyl))bis(2-azabicyclo[2.2.1]heptane-3,2-diyl))bis(3-methyl-1-oxobutane-2,1-diyl))dicarbamate] | 0.001 to 0.999 nM | 0.001 to 0.999 nM
COC(=O)N[C@H](C(=O)N1CCC[C@H]1c1ncc(-c2ccc3c(ccc4cc(-c5cnc([C@@H]6[C@H]7CC[C@H](C7)N6C(=O)[C@@H](NC(=O)OC)C(C)C)[nH]5)sc43)c2)[nH]1)C(C)C [Compound 11, methyl((S)-1-((S)-2-(5-(2-(2-((1R,3S,4S)-2-((S)-2-(methoxycarbonyl)amino-3-methylbutanoyl)-2-azabicyclo[2.2.1]heptan-3-yl)-1H-imidazol-5-yl)naphtho[1,2-b]thiophen-7-yl)-1H-imidazol-2-yl)pyrrolidin-1-yl)-3-methyl-1-oxobutan-2-yl)carbamate] | 0.001 to 0.999 nM | 0.001 to 0.999 nM
